Measurements as given in ChEMBL document CHEMBL5393453, “Compositions and methods of using the same for treatment of neurodegenerative and mitochondrial disease” (2021).

Assay: Cytotoxicity against human HeLa cells expressing YFP parkin assessed as highest safety dose by DAPI staining analysis
Type: toxicity, cell-based
Conditions: read-out: Activity

Structure (SMILES) | MNTC [µM]
c1ccc2c(c1)CC[C@@H](N1C[C@H]3COC[C@@H]3C1)[C@@H]2Nc1ncnc2[nH]c(C3CC3)cc12 | 25
C[C@@H]1COCCN1[C@@H]1CCc2ccccc2[C@H]1Nc1ncnc2[nH]c(C(F)(F)F)cc12 (single isomer, unassigned) | 25
Fc1cccc2c1CC[C@@H](N1C[C@H]3COC[C@H]3C1)[C@@H]2Nc1ncnc2[nH]c(C3CC3)cc12 (single isomer, unassigned) | 25
CN1CCN([C@H]2CCc3ccccc3[C@@H]2Nc2ncnc3[nH]c(C(F)(F)F)cc23)CC1 (single isomer, unassigned) | 25
FC(F)(F)c1cc2c(N[C@@H]3c4ccccc4CC[C@H]3C3CCOCC3)ncnc2[nH]1 (single isomer, unassigned) | 25
FC(F)(F)c1cc2c(N[C@H]3c4ccccc4CC[C@H]3C3CCOCC3)ncnc2[nH]1 | 25
CO[C@H]1CCN([C@@H]2COc3ccccc3[C@H]2Nc2ncnc3[nH]c(C4CC4)cc23)C1 | 25
FC(F)OC1CN([C@H]2COc3ccccc3[C@@H]2Nc2ncnc3[nH]c(C(F)(F)F)cc23)C1 | 25
FC(F)(F)c1cc2c(N[C@@H]3c4ccccc4OC[C@H]3C3CCCOC3)ncnc2[nH]1 (stereo not given in full) | 25
c1ccc2c(c1)OC[C@@H](N1CCOCC1)[C@@H]2Nc1ncnc2[nH]c(C3CC3)cc12 (single isomer, unassigned) | 25
FC(F)(F)c1cc2c(N[C@H]3c4ccccc4OC[C@@H]3C3CCCOC3)ncnc2[nH]1 (single isomer, unassigned) | 25
Fc1cccc2c1CC[C@H](N1C[C@H]3COC[C@H]3C1)[C@H]2Nc1ncnc2[nH]c(C3CC3)cc12 (single isomer, unassigned) | 25
C[S@](=N)(=O)C1CN([C@H]2COc3ccccc3[C@@H]2Nc2ncnc3[nH]c(C(F)(F)F)cc23)C1 (single isomer, unassigned) | 25
c1ccc2c(c1)OC[C@H](N1C[C@H]3COC[C@H]3C1)[C@H]2Nc1ncnc2[nH]c(C3CC3)cc12 (single isomer, unassigned) | 25
C[C@@H]1CN([C@H]2CCc3ccccc3[C@@H]2Nc2ncnc3[nH]c(C4CC4)cc23)C[C@H](C)O1 (single isomer, unassigned) | 25
Fc1ccc2c(c1)OC[C@H](N1CCOCC1)[C@H]2Nc1ncnc2[nH]c(C3CC3)cc12 | 25
FC(F)(F)c1cc2c(N[C@@H]3c4ccccc4CC[C@@H]3C3CCOCC3)ncnc2[nH]1 | 25
Fc1ccc2c(c1)OC[C@H](N1C[C@H]3COC[C@@H]3C1)[C@H]2Nc1ncnc2[nH]c(C(F)(F)F)cc12 (single isomer, unassigned) | 25
C[C@H]1CN([C@H]2COc3ccccc3[C@@H]2Nc2ncnc3[nH]c(C(F)(F)F)cc23)CCO1 | 25
Fc1cccc2c1CC[C@H](N1C[C@H]3COC[C@H]3C1)[C@H]2Nc1ncnc2[nH]c(C(F)(F)F)cc12 (single isomer, unassigned) | 25
C[C@H]1CN([C@H]2COc3cc(F)ccc3[C@@H]2Nc2ncnc3[nH]c(C4CC4)cc23)CCO1 | 25
C[C@H]1CN([C@@H]2CCc3ccccc3[C@H]2Nc2ncnc3[nH]c(C(F)(F)F)cc23)CCO1 (single isomer, unassigned) | 25
Fc1cccc2c1CC[C@@H](N1C[C@H]3COC[C@H]3C1)[C@@H]2Nc1ncnc2[nH]c(C(F)(F)F)cc12 (single isomer, unassigned) | 25
c1ccc2c(c1)CC[C@H](C1CCOCC1)[C@@H]2Nc1ncnc2[nH]c(C3CC3)cc12 | 25
CO[C@H]1CCN([C@@H]2COc3ccccc3[C@H]2Nc2ncnc3[nH]c(C(F)(F)F)cc23)C1 | 25

Structure (SMILES) | MNTC [µM]
Fc1ccc2c(c1)OC[C@@H](N1CCOCC1)[C@@H]2Nc1ncnc2[nH]c(C3CC3)cc12 (single isomer, unassigned) | 25
C[C@@H]1CN([C@@H]2CCc3ccccc3[C@H]2Nc2ncnc3[nH]c(C(F)(F)F)cc23)CCO1 (single isomer, unassigned) | 25
c1ccc2c(c1)CC[C@@H](N1C[C@H]3COC[C@H]3C1)[C@@H]2Nc1ncnc2[nH]c(C3CC3)cc12 (single isomer, unassigned) | 25
FC(F)(F)c1cc2c(N[C@H]3c4ccccc4OC[C@H]3N3CCOCC3)ncnc2[nH]1 | 25
C[C@H]1CN([C@@H]2COc3ccccc3[C@H]2Nc2ncnc3[nH]c(C4CC4)cc23)CCO1 | 25
CO[C@@H]1CCN([C@H]2COc3ccccc3[C@@H]2Nc2ncnc3[nH]c(C4CC4)cc23)C1 | 25
C[C@@H]1CN([C@@H]2CCc3ccccc3[C@H]2Nc2ncnc3[nH]c(C(F)(F)F)cc23)C[C@H](C)O1 (single isomer, unassigned) | 25
[2H]C([2H])([2H])OC1CN([C@@H]2COc3ccccc3[C@H]2Nc2ncnc3[nH]c(C(F)(F)F)cc23)C1 | 25
FC1COCCC1[C@H]1COc2ccccc2[C@@H]1Nc1ncnc2[nH]c(C(F)(F)F)cc12 (single isomer, unassigned) | 25
COC[C@@H]1CCCN1[C@H]1COc2ccccc2[C@@H]1Nc1ncnc2[nH]c(C(F)(F)F)cc12 (single isomer, unassigned) | 25
Fc1ccc2c(c1)CC[C@@H](N1C[C@@H]3COC[C@H]3C1)[C@@H]2Nc1ncnc2[nH]c(C(F)(F)F)cc12 | 25
c1ccc2c(c1)OCC(N1CC3CCOC3C1)C2Nc1ncnc2[nH]c(C3CC3)cc12 (single isomer, unassigned) | 25
c1ccc2c(c1)CC[C@@H](C1CCOCC1)[C@@H]2Nc1ncnc2[nH]c(C3CC3)cc12 | 25
C[C@@H]1COCCN1[C@H]1CCc2ccccc2[C@@H]1Nc1ncnc2[nH]c(C3CC3)cc12 (single isomer, unassigned) | 2.8
C[C@@H]1CN([C@H]2COc3cc(F)ccc3[C@@H]2Nc2ncnc3[nH]c(C(F)(F)F)cc23)CCO1 | 25
c1ccc2c(c1)OC[C@@H](N1C[C@H]3COC[C@H]3C1)[C@@H]2Nc1ncnc2[nH]c(C3CC3)cc12 (single isomer, unassigned) | 25
C[C@@H]1CN([C@@H]2COc3cc(F)ccc3[C@H]2Nc2ncnc3[nH]c(C(F)(F)F)cc23)CCO1 | 25
Fc1ccc2c(c1)CC[C@@H](N1CCOCC1)[C@@H]2Nc1ncnc2[nH]c(C3CC3)cc12 | 25
c1ccc2c(c1)OC[C@@H](C1CCOCC1)[C@H]2Nc1ncnc2[nH]c(C3CC3)cc12 | 25
C[C@@H]1CN([C@H]2COc3ccccc3[C@@H]2Nc2ncnc3[nH]c(C4CC4)cc23)CCO1 | 25
Fc1ccc2c(c1)CC[C@H](N1C[C@H]3COC[C@H]3C1)[C@H]2Nc1ncnc2[nH]c(C(F)(F)F)cc12 (single isomer, unassigned) | 25
C[C@@H]1CN([C@H]2CCc3ccccc3[C@@H]2Nc2ncnc3[nH]c(C(F)(F)F)cc23)C[C@H](C)O1 (single isomer, unassigned) | 25
Fc1ccc2c(c1)OC[C@H](N1C[C@@H]3COC[C@H]3C1)[C@H]2Nc1ncnc2[nH]c(C(F)(F)F)cc12 (single isomer, unassigned) | 25
C[C@H]1CN([C@@H]2CCc3ccccc3[C@H]2Nc2ncnc3[nH]c(C4CC4)cc23)CCO1 (single isomer, unassigned) | 25
c1ccc2c(c1)OC[C@@H](N1CCOCC1)[C@H]2Nc1ncnc2[nH]c(C3CC3)cc12 | 25
